Assay results: patent US20220305000A1 (Cellworks Group Inc., priority 2021, published 2022)
Like-named read-outs stand apart in the source and are kept apart here.

Experiments:
[1] = test system: patients with JAK2 aberration, Chromosome 8 / Chromosome 9 aberration; assay: Analysis of Ruxolitinib non-responder cases in JAK2 aberration segment (efficacy score, chromosome 8/9 genes)
From the text: Next, screening was done for all patient's resistant to Ruxolitinib (JAKAFI®) but sensitive to the drug combination of CQ+M+S.

[2] = in vivo, cited from earlier work
[3] = in vivo; cited from earlier work
[4] = cited from earlier work
[5] = test system: Jakafi resistant JAK2 V617F harboring BaF3 cell-line; conditions: metformin 0.25 mM, 0.5 mM, 1 mM, 5 mM and 10 mM
Protocol: Relative growth of cells was assessed using MTT assay.
Viable cells % was assessed using MTT assay.
Viable cells % was assessed using MTT assay (FIG. 7a).

[6] = test system: MPN Cell Lines (JAK2 and non JAK2 populations); assay: Efficacy of MPN standard of care drugs tested on cell lines; assay type: cell-based; conditions: for sensitive in % of JAK2 Cell line populations: JAK2 cell lines; for resistance in % of non JAK2 population: non JAK2 cell lines
From the text: (§1) Efficacy comparison study of standard of care drugs in MPN Cell Lines and Patients is provided hereunder: […]

[7] = test system: MPN patients (JAK2 and non JAK2 populations); assay: Efficacy of standard of care drugs on patient cohort; conditions: for sensitive in % of JAK2 patient populations: JAK2 patients; for resistance in % of non JAK2 patient's population: non JAK2 patients
From the text: as §1

[8] = after meal, chloroquine 200 mg morning, metformin 1250 mg morning and evening, rosuvastatin 20 mg evening

| Compound | MTD (maximum tolerated dose) [2] [mg/day] | Headache, All Grades [3] [%] | sensitive in % of JAK2 Cell line populations [6] [%] | resistance in % of non JAK2 population [6] [%] | sensitive in % of JAK2 patient populations [7] [%] | resistance in % of non JAK2 patient's population [7] [%] | other results |
| --- | --- | --- | --- | --- | --- | --- | --- |
| CN(C)C(=N)N=C(N)N [Metformin, metformin] | 2500 | 5.7 | – | – | – | – | Response ([1]; Gene TGFBR1, Chromosome 9, Trisomy 9): Inclusion; MTD (maximum tolerated dose) ([2]; listed as metformin): about 2500 mg/day; Diarrhoea, All Grades [3]: 53%; Nausea, All Grades [3]: 25.5%; grade ¾ toxicity [3]: rarely reported; Peak Concentration at Dosage ([4]; in vivo): 5.8 µM; cell viability, viable cells % (MTT) [5]: steady decrease in cell viability |
| O=C1CCC(N2C(=O)c3ccccc3C2=O)C(=O)N1 (stereo not shown) [Thalidomide] | – | – | 75 | 16.67 | 33.17 | 75.61 | – |
| CCN(CC)CCCC(C)Nc1ccnc2cc(Cl)ccc12 (stereo not shown) [Chloroquine, chloroquine] | 600 | – | – | – | – | – | Response ([1]; Gene MCL1, Chromosome 8, Trisomy 8): Inclusion; MTD (maximum tolerated dose) ([2]; listed as chloroquine): about 600 mg/day; grade ¾ toxicity [3]: rarely reported; Peak Concentration at Dosage [4, 8]: 1.18 µM; t½ ([4]; in vivo): 20 to 60 days |
| Nc1ncn([C@H]2C[C@H](O)[C@@H](CO)O2)c(=O)n1 [Decitabine] | – | – | 50 | 50 | 34.16 | 74 | – |
| NC(=O)NO [Hydroxyurea] | – | – | 0 | 100 | 1 | 100 | – |
| CC(C)c1nc(N(C)S(C)(=O)=O)nc(-c2ccc(F)cc2)c1/C=C/[C@@H](O)C[C@@H](O)CC(=O)O [Rosuvastatin, rosuvastatin] | 60 | 8.5 | – | – | – | – | MTD (maximum tolerated dose) ([2]; listed as rosuvastatin): about 60 mg/day; Nausea, All Grades [3]: 6.3%; Peak Concentration at Dosage [4, 8]: 0.09 µM |
| Nc1ncn([C@@H]2O[C@H](CO)[C@@H](O)[C@H]2O)c(=O)n1 [Azacytidine] | – | – | 50 | 50 | 34.16 | 74 | – |
| Cc1ccc(NC(=O)c2ccc(CN3CCN(C)CC3)cc2)cc1Nc1nccc(-c2cccnc2)n1 [Imatinib] | – | – | 0 | 83.33 | 0.5 | 100 | – |
| N#CC[C@H](C1CCCC1)n1cc(-c2ncnc3[nH]ccc23)cn1 [Ruxolitinib, ruxolitinib] | – | 14.8 | 75 | 83.33 | 81.18 | 87.81 | Anemia, All Grades [3]: 96.1%; Neutropenia, All Grades [3]: 18.7%; Thrombocytopenia, All Grades [3]: 69.7%; patients with Anemia of grade 3 or more [3]: 40-45% |
